From patent US11603380B2 (Centre national de la recherche scientifique, priority 2018, dated 2023) come the findings set out here.

Read-outs that look alike come from different tables or passages of the source.

Series [1] has as its system human cytomegalovirus (HCMV) (AD-169). In words: microbe, parasite or virus in culture. The class given is cell-based. Conditions: read-out: EC50 HCMV (AD-169).
Series [2] relates to Vaccinia Virus. In words: microbe, parasite or virus in culture. The class given is cell-based. Conditions: read-out: EC50 Vaccinia Virus.
Series [3] relates to varicella-zoster virus (VZV) TK− (07/1). The series can be described thus: microbe, parasite or virus in culture. Format: cell-based. The conditions noted are these: Human alphaherpesvirus 3, HEL, read-out: EC50 VZV TK− (07/1).
The test system of series [4] is Feline Herpes Virus. The series can be described thus: organism not typed. Format: cell-based. Conditions: read-out: EC50 Feline Herpes Virus.
Series [5] relates to HEL cell cultures.
Series [6] has as its system HSV-2 (G). In words: microbe, parasite or virus in culture. Format: cell-based, herpes simplex virus 2. The conditions noted are these: read-out: EC50 HSV-2 (G).
Series [7] concerns HSV-1, HSV-2, HSV-1 (TK−), VV, FHV. The class given is cell-based.
The test system of series [8] is HSV-1 (KOS ACV) TK−. The series can be described thus: microbe, parasite or virus in culture. The class given is cell-based, herpes simplex virus 1.
Series [9] deals with human cytomegalovirus (HCMV) (Davis). In words: microbe, parasite or virus in culture. The class given is cell-based. Conditions: read-out: EC50 HCMV (Davis).
The nature of series [10]: in vitro. Conditions: human.
Series [11] concerns herpes simplex virus 1 (HSV-1) (KOS). The series can be described thus: microbe, parasite or virus in culture. The class given is cell-based. The conditions noted are these: read-out: EC50 HSV-1 (KOS).
For series [12], the system named is varicella-zoster virus (VZV) TK+ (OKA). The series can be described thus: microbe, parasite or virus in culture. Format: cell-based. Conditions: read-out: EC50 VZV TK+ (OKA).
The subject of series [13] is HEL cells. Conditions: read-out: Cytotoxicity CC50; concentration reducing cell growth by 50%; HCMV/VZV table.
The mark [14] stands for this setting: Human betaherpesvirus 5, AD169, HEL.
The mark [15] stands for this setting: Human alphaherpesvirus 1, read-out: EC50 HSV-1 (KOS ACV) TK−.
Where [16] appears, read: read-out: EC50 HSV-1 (KOS ACV) TK−.

Consider `CC(C)(C)C(=O)OCOP(=O)(C/C=C/COc1cc(N)nc(N)n1)OCOC(=O)C(C)(C)C` [Compound (1), [[(E)-4-(2,6-diaminopyrimidin-4-yl)oxybut-2′-enyl]-(2,2-dimethylpropanoyloxymethoxy)phosphoryl]oxymethyl 2,2-dimethylpropanoate], for which the EC50 in [1] (setting [14]) is 44.7 µM; in [2] (Orthopoxvirus vaccinia, HEL), 32.5 µM; in [3], 2.32 µM; in series [4], greater than 100 µM; in series [6] (Human alphaherpesvirus 2, HEL), 13.4 µM; in [8] (setting [15]), 13.4 µM. The EC50 stood at 44.7 µM in series [9] (Human betaherpesvirus 5, HEL); 13.4 µM in [11] (Human alphaherpesvirus 1, HEL); 2.04 µM in series [12] (Human alphaherpesvirus 3, HEL). The “Cytotoxicity MCC” value in series [5] (human) is greater than 100 µM. Moreover, the “activity level against HSV-1, HSV-2, HSV-1 (TK−), VV, FHV” value (“activity level” for short) in [7] is “micromolar and sub-micromolar activities”. This compound also gave a CC50 at 3 days in series [10] of 5.1 µM.
For the compound `CC(=O)OCC(=CCP(=O)(OCOC(=O)C(C)(C)C)OCOC(=O)C(C)(C)C)COc1cc(N)nc(N)n1` (mixture of isomers) [Compound (4), [[(Z/E)-3-(acetoxymethyl)-4-(2,6-diaminopyrimidin-4-yl)oxy-but-2′-enyl]-(2,2-dimethylpropanoyloxymethoxy)phosphoryl]oxymethyl 2,2-dimethylpropanoate], the EC50 in series [1] (setting [14]) was 8.56 µM; in series [2] (Orthopoxvirus vaccinia, HEL), 2.9 µM; in series [3] it was 0.12 µM; in series [4], greater than 100 µM; in series [6] (Human alphaherpesvirus 2, HEL) it was 1.1 µM; in series [8] (setting [15]), 0.6 µM. The EC50 in [9] (Human betaherpesvirus 5, HEL) was determined as 4.06 µM; in series [11] (Human alphaherpesvirus 1, HEL), 0.6 µM; in series [12] (Human alphaherpesvirus 3, HEL), 0.14 µM. Moreover, the “Cytotoxicity MCC” value in series [5] (human) amounted to 100 µM. Also, in [7], the “activity level” value is “micromolar and sub-micromolar activities”. The same compound yielded a CC50 at 3 days in [10] of 2.02 µM.
For `CCCCCCCCCCCCCCCCOCCCOP(=O)(CC=C(COC(C)=O)COc1cc(Cl)nc(N)n1)OCOC(=O)OC(C)C` (mixture of isomers) [Compound (8), [(E/Z)-2′-[(2-amino-6-chloro-pyrimidin-4-yl)oxymethyl]-4-[3-hexadecoxypropoxy(isopropoxycarbonyloxymethoxy)phosphoryl]but-2′-enyl]acetate], the EC50 was greater than 20 µM in series [1]; greater than 100 µM in series [2]; greater than 100 µM in series [4]; greater than 100 µM in [6]; greater than 100 µM in [8] (setting [16]); 13.1 µM in [9]. The EC50 in series [11] is greater than 100 µM; in [12], 48.9 µM. In addition, the “Cytotoxicity MCC” value in [5] worked out at 100 µM. Further, the CC50 in [13] is 5.01 µM.
With “[(E/Z)-2-[[2-[bis(tert-butoxycarbonyl)amino]-6-methoxy-pyrimidin-4-yl]oxymethyl]-4-[3-hexadecoxypropoxy(isopropoxycarbonyloxymethoxy)phosphoryl]but-2′-enyl]acetate [Compound (7)]”, the EC50 was greater than 20 µM in series [1]; greater than 100 µM in series [2]; greater than 100 µM in series [4]; greater than 100 µM in series [6]; greater than 100 µM in [8] (setting [16]); 8.94 µM in series [9]. Further, the EC50 is greater than 100 µM in series [11] and greater than 20 µM in series [12]. The “Cytotoxicity MCC” value in series [5] came to 100 µM. Moreover, the CC50 in series [13] came out at 1.29 µM.
Regarding `CCCCCCCCCCCCCCCCOCCCOP(=O)(C/C=C/COc1cc(N)nc(N)n1)OCOC(=O)OC(C)C` (centres unmarked) [Compound (2), [[(E)-4-(2,6-diaminopyrimidin-4-yl)oxybut-2′-enyl]-(3-hexadecoxypropoxy)phosphoryl]oxymethyl isopropyl carbonate], the EC50 was 7.08 µM in series [1]; greater than 100 µM in series [2]; greater than 100 µM in [4]; greater than 100 µM in series [6]; greater than 100 µM in [8] (setting [16]); 7.26 µM in series [9]. The EC50 in series [11] was greater than 100 µM; in series [12], 0.17 µM. In addition, in series [5], the “Cytotoxicity MCC” value was greater than 100 µM. Besides, the CC50 in series [13] worked out at 14.5 µM.
On to `CC(C)OC(=O)OCOP(=O)(C/C=C/COc1cc(N)nc(N)n1)OCOC(=O)OC(C)C` [Compound (3), [[(E)-4-(2,6-diaminopyrimidin-4-yl)oxybut-2′-enyl]-(isopropoxycarbonyloxymethoxy)phosphoryl]oxymethyl isopropyl carbonate], for which the EC50 in series [1] (setting [14]) is 44.7 µM; in [2] (Orthopoxvirus vaccinia, HEL), greater than 100 µM; in series [3] it was 1.25 µM; in [4], greater than 100 µM; in series [6] (Human alphaherpesvirus 2, HEL), 1.85 µM; in series [8] (setting [15]), 5.75 µM. Further, the EC50 in [9] (Human betaherpesvirus 5, HEL) came to 36.6 µM; in series [11] (Human alphaherpesvirus 1, HEL) it was 3.75 µM; in series [12] (Human alphaherpesvirus 3, HEL), 0.86 µM. In addition, the “Cytotoxicity MCC” value in [5] (human) was greater than 100 µM. For the same compound, the “activity level” value in series [7] is “micromolar and sub-micromolar activities”. The same compound came in with a CC50 at 3 days in [10] of 99 µM.
As to `CC(C)(C)C(=O)OCOP(=O)(CCCCOc1cc(N)nc(N)n1)OCOC(=O)C(C)(C)C` [Compound (12)], the EC50 in series [1] (setting [14]) is 44.7 µM; in series [2] (Orthopoxvirus vaccinia, HEL) it was greater than 100 µM; in series [3], 11 µM; in series [4], greater than 100 µM; in series [6] (Human alphaherpesvirus 2, HEL), 39.5 µM; in series [8] (setting [15]) it was 42 µM. Also, the EC50 is greater than 20 µM in series [9] (Human betaherpesvirus 5, HEL); 39.5 µM in [11] (Human alphaherpesvirus 1, HEL); 11.3 µM in [12] (Human alphaherpesvirus 3, HEL). Further, the “Cytotoxicity MCC” value in [5] (human) was greater than 100 µM. This compound also showed a CC50 at 3 days in [10] of 54.9 µM.
